Measurements reported in publication PMC12040169 (PLOS Biology, 2025).

Test: in vitro
Settings: human, hela cells, % viability

Going from COc1ccc(OC)c(C(=O)N2CCNC(=O)C2Cc2ccccc2-c2ccc(F)cc2)c1 (stereo not drawn) [CBK285829] to Cn1nc(C(C)(C)C)cc1C(=O)N1CCNC(=O)C1Cc1ccccc1-c1ccc(F)cc1 (stereo not drawn) [CBK285830], the viability at 28.5 h, 10 µM falls from 105% to 101%.

Compared with O=C1NCCN(C(=O)COc2ccc(F)cc2F)C1Cc1ccccc1-c1cccnc1 (stereo not drawn) [CBK285832], COc1ccc(-c2ccccc2NC(=O)C2CC(=O)N(Cc3cccc(F)c3)C2)cc1 (stereo not drawn) [CBK285937] is lower in viability at 28.5 h, 10 µM: 95.6% for the first, 89.3% for the second.

Compared with Cc1ccc2[nH]c(-c3cccc(NC(=O)c4ccc(-n5cnnc5)cc4)c3)nc2c1 [CBK285839], COc1cccc(-c2ccc(NC(=O)c3ccc(Cn4cnnn4)cc3)cc2)c1 [CBK285850] is lower in viability at 28.5 h, 10 µM: 94.1% for the first, 93.4% for the second.

Going from COc1c(C)cccc1C(=O)N1CCCCC1c1ncc(C(=O)Nc2ccccc2)c(C)n1 (stereo not drawn) [CBK285841] to Cc1cccc(CC(=O)N2CCC(c3ncc(C(=O)Nc4ccc(F)cc4)c(C)n3)CC2)c1 [CBK285885], the viability at 28.5 h, 10 µM rises from 89.9% to 101%.

Going from CCN(Cc1ncc[nH]1)[C@H]1CCO[C@@H](c2ccccc2-c2ccc(OC)cc2)C1 [CBK285842] to CCN(Cc1nccn1CC)[C@H]1CCO[C@@H](c2ccccc2-c2ccc(OC)cc2)C1 [CBK285852], the viability at 28.5 h, 10 µM falls from 104% to 101%.

First: CCOc1ccccc1-c1ccccc1NC(=O)c1ccc(-n2nc(C)cc2C)cc1 [CBK285845]
Second: COc1ccc(-c2ccccc2NC(=O)c2ccc(Cn3cnnn3)cc2)cc1 [CBK285866]
The viability at 28.5 h, 10 µM of the first is lower: 54.1% for the first, 96.4% for the second.

First: COC(C)(C)C(=O)N1CCCC(c2ccc(Cc3ccc(Cl)cc3)cn2)C1 (stereo not drawn) [CBK285846]
Second: COc1ccc(OC(C)(C)C(=O)N2CCCC(c3ccc(Nc4ncccn4)cn3)C2)cc1 (stereo not drawn) [CBK285970]
The viability at 28.5 h, 10 µM of the first is higher: 98.6% for the first, 83.9% for the second.

Going from COc1ccc(CCCC(=O)N2CCC(c3c(C(N)=O)sc4ccccc34)C2)cc1C (stereo not drawn) [CBK285848] to CC(C)NC(=O)c1sc2ccccc2c1C1CCN(C(=O)CCc2ccccc2)C1 (stereo not drawn) [CBK285874], the viability at 28.5 h, 10 µM rises from 94% to 99.2%.

First: CCN(Cc1cnn(C)c1)[C@H]1CCO[C@@H](c2ccccc2-c2ccc(OC)cc2)C1 [CBK285854]
Second: CCN(C(=O)c1ccc(C)nc1)[C@H]1CCO[C@@H](c2cccc(-c3cc(F)cc(F)c3)c2)C1 [CBK285856]
The viability at 28.5 h, 10 µM of the first is higher: 98% for the first, 91% for the second.

Going from Cc1ccc(Oc2ccc(CNC(=O)c3sc4nc[nH]c(=O)c4c3C)cc2)cc1 [CBK285857] to COc1ccc(CC(C(=O)Nc2ccc3nc[nH]c(=O)c3c2)c2ccccc2)cc1 (stereo not drawn) [CBK285863], the viability at 28.5 h, 10 µM rises from 91.3% to 94.3%.

Going from COc1ccc(CC(=O)N2CCCCC2c2cc(-c3ccc(F)cc3)cc(C)n2)cc1OC (stereo not drawn) [CBK285858] to COc1ccc(CCC(=O)N2CCCC2c2cc(Nc3nccs3)cc(C)n2)cc1 (stereo not drawn) [CBK285939], the viability at 28.5 h, 10 µM falls from 98.8% to 90%.

First: CC(C)NC(=O)c1cc([C@H]2CC[C@H](CNC(=O)Cn3cccn3)CC2)nc2ccccc12 [CBK285859]
Second: Cc1n[nH]cc1C(=O)NC[C@H]1CC[C@H](c2cc(C(=O)NC(C)C)c3ccccc3n2)CC1 [CBK285862]
The viability at 28.5 h, 10 µM of the first is higher: 112% for the first, 96.3% for the second.

Compared with CC(C)CNC(=O)c1cc([C@H]2CC[C@H](CNC(=O)c3cnn(C)c3)CC2)nc2ccccc12 [CBK285867], COc1cccc(C(=O)NC[C@H]2CC[C@H](c3cc(C(N)=O)c4ccccc4n3)CC2)c1OC [CBK285919] is lower in viability at 28.5 h, 10 µM: 114% for the first, 88.6% for the second.

First: CNC(=O)c1sc2ccccc2c1C1CN(Cc2cn(C)c3ccc(F)cc23)CCO1 (stereo not drawn) [CBK285868]
Second: CNC(=O)c1sc2ccccc2c1C1CCN(Cc2cnn(-c3ccc(F)cc3)c2)C1 (stereo not drawn) [CBK285882]
The viability at 28.5 h, 10 µM of the first is higher: 87.4% for the first, 84.1% for the second.

Compared with CC(C)NC(=O)c1sc2ccccc2c1C1CN(C(=O)CC2CCCCC2)CCO1 (stereo not drawn) [CBK285869], Cc1c(C(=O)N2CCC(c3c(C(=O)NC(C)C)sc4ccccc34)C2)[nH]c2ccccc12 (stereo not drawn) [CBK285872] is lower in viability at 28.5 h, 10 µM: 91.5% for the first, 84.8% for the second.

Going from CNC(=O)c1sc2ccccc2c1C1CCN(C(=O)CCN(C)c2ccc(F)cc2)C1 (stereo not drawn) [CBK285878] to CC(C)NC(=O)c1cc(C2CCN(C(=O)CCCc3ccc(F)cc3)C2)nc2ccccc12 (stereo not drawn) [CBK285921], the viability at 28.5 h, 10 µM falls from 96.5% to 95.2%.

Compared with CNC(=O)c1sc2ccccc2c1C1CCN(Cc2ccc(Oc3ncccn3)cc2)C1 (stereo not drawn) [CBK285881], CC(=O)N1CCC(c2c(C(=O)Nc3cccc(CN4CCCC4)c3)sc3ccccc23)C1 (stereo not drawn) [CBK285892] is higher in viability at 28.5 h, 10 µM: 85.9% for the first, 110% for the second.

Compared with Cc1ccc(CC(=O)N2CCC(c3ncc(C(=O)Nc4ccc(F)cc4)c(C)n3)CC2)cc1 [CBK285884], Cc1ccc(CC(=O)N2CCC(Cc3ccc(-c4cccc(C)c4)cc3)(C(N)=O)CC2)cc1 [CBK285906] is lower in viability at 28.5 h, 10 µM: 111% for the first, 89% for the second.

Going from O=c1[nH]cc(S(=O)(=O)N2CCN(Cc3ccccc3Cl)CC2)c(=O)[nH]1 [CBK285889] to O=c1[nH]c(=O)c2cc(S(=O)(=O)N3CCc4[nH]c5ccccc5c4C3)ccc2[nH]1 [CBK285949], the viability at 28.5 h, 10 µM falls from 97.1% to 96.7%.

Going from Cc1nn(C(C)C)c(C)c1CN1CCC(c2c(C(=O)NC(C)C)sc3ccccc23)C1 (stereo not drawn) [CBK285890] to CC(C)NC(=O)c1sc2ccccc2c1C1CCN(S(=O)(=O)c2ccccc2)C1 (stereo not drawn) [CBK285927], the viability at 28.5 h, 10 µM falls from 95.5% to 83.1%.

First: CC(=O)NCc1ccc(-c2ccc(C(=O)NC3(c4ccccc4)CCCC3)c(C)n2)cc1 [CBK285891]
Second: COc1ccc(CC(=O)N2CCC(Cc3ccccc3-c3ccccc3)(C(N)=O)CC2)cc1 [CBK285911]
The viability at 28.5 h, 10 µM of the first is higher: 96% for the first, 91.8% for the second.

Compared with CC(C)NC(=O)c1cc(C2CN(Cc3ccc4ncccc4c3)CCO2)nc2ccccc12 (stereo not drawn) [CBK285895], Cc1ncc(CN2CCOC(c3cc(C(=O)NCC(C)C)c4ccccc4n3)C2)s1 (stereo not drawn) [CBK285897] is lower in viability at 28.5 h, 10 µM: 92.9% for the first, 89.9% for the second.

Going from CC(C)CC(=O)N1CCC(Cc2ccccc2-c2cccs2)(C(=O)NC(C)C)CC1 [CBK285898] to NC(=O)C1(Cc2ccccc2-c2ccccc2)CCN(C(=O)Cc2ccccc2)CC1 [CBK285909], the viability at 28.5 h, 10 µM rises from 87.3% to 95.9%.

Compared with CC(C)c1csc(NC(=O)CC2CCN(S(=O)(=O)c3cccc(F)c3)CC2)n1 [CBK285902], CC(C)c1nnc(NC(=O)CC2CCN(C(=O)C3(c4ccccc4)CCCC3)CC2)s1 [CBK285905] is higher in viability at 28.5 h, 10 µM: 83.4% for the first, 94.9% for the second.

First: COc1cc(CN2CCC(Cc3ccccc3-c3ccccc3)(C(N)=O)CC2)cc(OC)c1 [CBK285912]
Second: O=C(CCn1c(=O)oc2ccccc21)Nc1ccc2c(c1)CN(Cc1ccccc1)C2 [CBK285946]
The viability at 28.5 h, 10 µM of the first is lower: 88.1% for the first, 120% for the second.

First: COc1cccc(CN2CC=CCC(C3CCN(c4nc(C)cc(C)n4)CC3)C2=O)c1 (stereo not drawn) [CBK285915]
Second: CCOc1cc(F)ccc1NC(=O)CC1CCN(c2nc(C)cc(C)n2)CC1 [CBK285958]
The viability at 28.5 h, 10 µM of the first is lower: 85.6% for the first, 103% for the second.

CC(C)NC(=O)c1cc(C2CCN(C(=O)CCOc3ccccc3F)C2)nc2ccccc12 (stereo not drawn) [CBK285917] and Cc1csc(Nc2cccc(C3CCCN3C(=O)CCOc3ccccc3C)n2)n1 (stereo not drawn) [CBK285977] are the same in viability at 28.5 h, 10 µM: 101% for the first, 101% for the second.

Compared with CNC(=O)C1(Cc2ccc(-c3cccc(C)c3)cc2)CCN(C(=O)CC(C)(C)C)CC1 [CBK285923], Cc1ccc2c(c1)cc(C(=O)N1CCC(C(=O)NCCc3ccc(Cl)cc3)C1)n2C (stereo not drawn) [CBK285926] is higher in viability at 28.5 h, 10 µM: 86.4% for the first, 103% for the second.

Compared with Cc1cc(C)nc(N2CCCC(O)(c3nc(C)c(CCOc4ccccc4)s3)CC2)n1 (stereo not drawn) [CBK285924], Cc1cc(-c2cnc(N)nc2)cc(C2CCCN(C(=O)COc3c(C)cccc3C)C2)n1 (stereo not drawn) [CBK285933] is lower in viability at 28.5 h, 10 µM: 111% for the first, 103% for the second.

Going from CC(C)CNC(=O)c1cc(C2CN(Cc3c[nH]nc3C(C)(C)C)CCO2)nc2ccccc12 (stereo not drawn) [CBK285925] to COc1cccc2[nH]c(C(=O)N3CCOC(c4cccc(-c5c(F)cccc5F)n4)C3)cc12 (stereo not drawn) [CBK285948], the viability at 28.5 h, 10 µM rises from 104% to 110%.

First: Cc1cc(-c2cnc(N)nc2)cc(C2CCCN(S(=O)(=O)c3ccc(F)c(C)c3)C2)n1 (stereo not drawn) [CBK285934]
Second: Cc1cccnc1Nc1ccc(C2CCCN(C(=O)Cc3ccc4c(c3)CCCO4)C2)nc1 (stereo not drawn) [CBK285969]
The viability at 28.5 h, 10 µM of the first is higher: 105% for the first, 89.8% for the second.

Going from O=C(CN1CCCC1c1ccc(Nc2ccc(F)cn2)cn1)Nc1ccc(F)cc1 (stereo not drawn) [CBK285941] to CC(C)(CNC(=O)c1ccc(=O)n(CC(=O)Nc2ccc(F)cc2)c1)c1cccc(F)c1 [CBK285955], the viability at 28.5 h, 10 µM falls from 106% to 86.7%.

Compared with CC(Cc1ccc(N(C)C)cc1)NC(=O)C1CN(S(=O)(=O)c2ccc(F)cc2)C1 (stereo not drawn) [CBK285942], Cn1c(-c2ccccc2)cnc1NC(=O)C1CN(S(=O)(=O)c2ccc(F)cc2)C1 [CBK285945] is lower in viability at 28.5 h, 10 µM: 114% for the first, 98.4% for the second.

Compared with Cc1cccc(CNC(=O)CC2CCN(Cc3cccc(C(F)(F)F)c3)CC2)n1 [CBK285950], O=C(CC1CCN(Cc2cccc(C(F)(F)F)c2)CC1)NCc1ccc2[nH]c(=O)[nH]c2c1 [CBK285954] is lower in viability at 28.5 h, 10 µM: 105% for the first, 97.8% for the second.

Going from Cn1c(=O)oc2cc(NC(=O)CC3CCN(Cc4cccc(C(F)(F)F)c4)CC3)ccc21 [CBK285953] to Cn1c(-c2ccccc2)cnc1NC(=O)CC1CCN(C(=O)Cc2ccccc2)CC1 [CBK285966], the viability at 28.5 h, 10 µM rises from 90% to 96.9%.

Going from Cn1cnc2ccc(NC(=O)CC3CCN(C(=O)CC4CCCCC4)CC3)cc21 [CBK285961] to Cc1nc2ccc(NC(=O)CC3CCN(C(=O)CC4CCCCC4)CC3)cc2[nH]1 [CBK285967], the viability at 28.5 h, 10 µM rises from 84.1% to 94.6%.

Compared with O=C(CC1CCN(C(=O)CC2CCCCC2)CC1)NCc1ccccc1N1CCCC1 [CBK285962], O=C(Cn1cc(C(=O)Nc2cc(F)ccc2N2CCCC2)ccc1=O)NC1CCCCC1 [CBK285981] is higher in viability at 28.5 h, 10 µM: 99.2% for the first, 102% for the second.

Compared with Cc1cccnc1Nc1ccc(C2CCCN(C(=O)Cc3c[nH]c4ccccc34)C2)nc1 (stereo not drawn) [CBK285968], O=C(Cn1cc(C(=O)NCC2(c3ccccc3Cl)CC2)ccc1=O)NC1CCCCC1 [CBK285985] is lower in viability at 28.5 h, 10 µM: 97.7% for the first, 92.7% for the second.

Molecule Cc1cc(C)c2nc(NC(=O)c3ccc(=O)n(CC(=O)NC4CCCCC4)c3)sc2c1 [CBK285980] has a viability at 28.5 h, 10 µM of 107%.

Same assay, conditions: human, hela cells, % viability, bulk resorufin, single well

For CC1CCN(c2ccc(C(C)NC(=O)CCC3C(=O)NC(=O)NC3=O)cc2)CC1 (stereo not drawn) [CBK285849], the viability at 28.5 h, 10 µM was 96.9%.
